Residues, ends and D or L forms follow the SMILES beside them.
Assays:
[1] = molecular target: TAP translocator (H-2d-derived microsomes) (Mus musculus, UniProt P21958+P36371); assay: biochemical
mouse microsomes = assay: Efflux of labeled peptide from loaded mouse microsomes; type: biochemical; conditions: mouse liver microsomes in the presence of ATP; HPLC; data not shown
[2] = tested on: mouse TAP1/TAP2 translocator; assay: Accumulation of labeled peptide in mouse liver microsomes; conditions: microsomes from TAP1 mutant (C57Bl/6 x 129/SV) mice; means of duplicates

Chain of TAP translocator (H-2d-derived microsomes) (P21958 whole entry): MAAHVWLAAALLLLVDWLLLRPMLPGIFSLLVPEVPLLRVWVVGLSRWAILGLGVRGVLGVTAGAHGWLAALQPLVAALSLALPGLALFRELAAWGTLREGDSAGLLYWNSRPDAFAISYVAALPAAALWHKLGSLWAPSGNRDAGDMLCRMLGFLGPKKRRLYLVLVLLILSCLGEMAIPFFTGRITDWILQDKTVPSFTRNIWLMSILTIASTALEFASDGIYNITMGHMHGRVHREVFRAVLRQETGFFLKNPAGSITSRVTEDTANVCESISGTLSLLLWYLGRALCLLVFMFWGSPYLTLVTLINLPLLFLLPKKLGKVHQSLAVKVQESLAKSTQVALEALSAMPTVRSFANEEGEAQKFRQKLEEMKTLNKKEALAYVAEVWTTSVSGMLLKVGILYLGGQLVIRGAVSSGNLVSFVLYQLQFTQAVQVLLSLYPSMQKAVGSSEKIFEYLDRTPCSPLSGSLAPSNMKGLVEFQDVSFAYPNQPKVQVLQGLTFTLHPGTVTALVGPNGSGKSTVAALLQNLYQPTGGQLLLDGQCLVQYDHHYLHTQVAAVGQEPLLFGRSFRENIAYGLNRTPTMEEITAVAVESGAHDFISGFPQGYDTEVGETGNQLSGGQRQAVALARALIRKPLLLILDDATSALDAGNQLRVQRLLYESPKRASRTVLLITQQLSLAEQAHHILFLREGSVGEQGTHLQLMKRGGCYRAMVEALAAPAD
Chain of TAP translocator (H-2d-derived microsomes) (P36371 whole entry): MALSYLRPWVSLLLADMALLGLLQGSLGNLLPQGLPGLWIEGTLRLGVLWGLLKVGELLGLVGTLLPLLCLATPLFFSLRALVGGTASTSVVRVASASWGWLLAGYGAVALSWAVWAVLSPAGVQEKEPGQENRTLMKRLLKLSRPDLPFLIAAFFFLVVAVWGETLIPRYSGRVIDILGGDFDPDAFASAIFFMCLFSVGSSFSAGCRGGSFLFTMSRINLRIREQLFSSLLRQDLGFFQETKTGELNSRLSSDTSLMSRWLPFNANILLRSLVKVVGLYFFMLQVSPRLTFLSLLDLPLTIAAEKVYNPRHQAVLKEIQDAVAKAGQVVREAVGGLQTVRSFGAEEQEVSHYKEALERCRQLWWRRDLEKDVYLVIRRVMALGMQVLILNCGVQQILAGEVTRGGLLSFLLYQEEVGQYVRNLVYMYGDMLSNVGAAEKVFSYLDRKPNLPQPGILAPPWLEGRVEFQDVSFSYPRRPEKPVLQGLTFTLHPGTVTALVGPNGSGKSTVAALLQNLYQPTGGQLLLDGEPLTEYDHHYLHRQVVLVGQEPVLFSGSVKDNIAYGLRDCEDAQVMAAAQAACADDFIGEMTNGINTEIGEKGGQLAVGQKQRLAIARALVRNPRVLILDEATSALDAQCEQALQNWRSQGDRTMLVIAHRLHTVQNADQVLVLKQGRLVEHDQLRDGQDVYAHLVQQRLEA

Molecule	IC50 [1] [µM]	Integrity of material accumulated by and released from microsomes (mouse microsomes)	Accumulation of labeled peptide in TAP- microsomes [2]
CC(C)C[C@H](NC(=O)[C@H](C)NC(=O)[C@H](CCCNC(=N)N)NC(=O)[C@@H](NC(=O)[C@H](CCCNC(=N)N)NC(=O)[C@H](CCC(N)=O)NC(=O)[C@H](Cc1ccc(O)cc1)NC(=O)[C@@H](N)[C@@H](C)O)[C@@H](C)O)C(=O)N[C@H](C(=O)O)C(C)C (H-TYQRTRALV-OH)	3	–	–
CC(C)C[C@H](NC(=O)[C@H](C)NC(=O)[C@@H]1CCCN1C(=O)[C@H](Cc1ccc(O)cc1)NC(=O)[C@H](CC(N)=O)NC(=O)CNC(=O)[C@@H]1CCCN1C(=O)[C@H](C)NC(=O)[C@@H](N)Cc1ccccc1)C(N)=O [FAPGNYPAL]	3	largely intact	–
TYNRTRALI	–	–	do not accumulate
